Data reported in ChEMBL document CHEMBL4406811, “Optimization and Mechanistic Characterization of Pyridopyrimidine Inhibitors of Bacterial Biotin Carboxylase” (J Med Chem, 2019).

Columns and labels:
[1] = tested on: Escherichia coli; experiment: Antibacterial activity against Escherichia coli DM4100 harboring deltatolC mutant measured after 18 to 20 hrs in presence of permeabilizing agent PMBN by broth microdilution method; type: functional
[2] = target: ABL1 (Homo sapiens, UniProt P00519); experiment: Inhibition of full-length recombinant human His-tagged ABL1 cytoplasmic domain expressed in baculovirus expression system at 25 uM using FRET-labeled tyr 02 peptide as substrate measured after 1 hr by Z'-lyte assay relative to control; settings: probe FRET-labeled tyr 02 peptide
Sequence of ABL1 (P00519 whole entry, the tested form may be a part): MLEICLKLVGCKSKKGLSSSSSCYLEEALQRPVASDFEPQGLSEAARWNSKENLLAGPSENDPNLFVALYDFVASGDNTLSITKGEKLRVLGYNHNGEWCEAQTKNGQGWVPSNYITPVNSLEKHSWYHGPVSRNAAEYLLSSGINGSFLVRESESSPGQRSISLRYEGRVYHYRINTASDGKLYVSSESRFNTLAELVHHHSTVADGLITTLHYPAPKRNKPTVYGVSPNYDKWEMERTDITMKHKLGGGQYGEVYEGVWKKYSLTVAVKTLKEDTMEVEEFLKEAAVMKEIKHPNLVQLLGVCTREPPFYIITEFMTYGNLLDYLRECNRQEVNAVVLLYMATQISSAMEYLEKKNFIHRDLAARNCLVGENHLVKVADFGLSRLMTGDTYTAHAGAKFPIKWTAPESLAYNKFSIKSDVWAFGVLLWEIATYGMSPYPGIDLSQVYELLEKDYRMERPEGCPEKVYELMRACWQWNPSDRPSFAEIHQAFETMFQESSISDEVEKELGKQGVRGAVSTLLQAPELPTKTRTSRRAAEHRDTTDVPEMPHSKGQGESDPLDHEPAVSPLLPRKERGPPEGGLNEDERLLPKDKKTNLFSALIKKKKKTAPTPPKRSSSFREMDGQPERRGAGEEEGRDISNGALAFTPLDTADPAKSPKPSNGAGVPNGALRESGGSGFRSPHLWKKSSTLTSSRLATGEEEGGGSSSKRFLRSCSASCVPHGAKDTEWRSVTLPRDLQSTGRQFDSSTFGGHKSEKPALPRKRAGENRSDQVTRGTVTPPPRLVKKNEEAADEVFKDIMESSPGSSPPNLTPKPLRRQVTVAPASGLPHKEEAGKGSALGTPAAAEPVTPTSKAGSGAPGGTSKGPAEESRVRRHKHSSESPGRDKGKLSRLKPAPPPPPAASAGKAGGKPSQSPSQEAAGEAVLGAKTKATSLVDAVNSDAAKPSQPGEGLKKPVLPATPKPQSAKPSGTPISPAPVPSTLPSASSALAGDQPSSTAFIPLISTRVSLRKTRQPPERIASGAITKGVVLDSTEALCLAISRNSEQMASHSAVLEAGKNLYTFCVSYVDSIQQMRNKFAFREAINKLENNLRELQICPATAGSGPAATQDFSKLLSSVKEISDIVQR

[3] = target: FGFR1 (Homo sapiens, UniProt P11362); experiment: Inhibition of recombinant human His-tagged FGFR1 cytoplasmic domain (308 to 731 residues) expressed in baculovirus expression system at 25 uM using FRET-labeled tyr 04 peptide as substrate measured after 1 hr by Z'-lyte assay relative to control; settings: probe FRET-labeled tyr 04 peptide
[4] = target: EGFR (Homo sapiens, UniProt P00533); experiment: Inhibition of recombinant human GST-tagged EGFR cytoplasmic domain (668 to 1210 residues) expressed in baculovirus expression system at 25 uM using FRET-labeled tyr 04 peptide as substrate measured after 1 hr by Z'-lyte assay relative to control; settings: probe FRET-labeled tyr 04 peptide
[5] = target: MAP4K4 (Homo sapiens, UniProt O95819); experiment: Inhibition of recombinant human GST-tagged MAP4K4 catalytic domain (1 to 328 residues) expressed in baculovirus expression system at 25 uM using FRET-labeled Ser/Thr 07 peptide as substrate measured after 1 hr by Z'-lyte assay relative to control; settings: probe FRET-labeled Ser/Thr 07 peptide
Sequence of MAP4K4 (O95819 whole entry, the tested form may be a part): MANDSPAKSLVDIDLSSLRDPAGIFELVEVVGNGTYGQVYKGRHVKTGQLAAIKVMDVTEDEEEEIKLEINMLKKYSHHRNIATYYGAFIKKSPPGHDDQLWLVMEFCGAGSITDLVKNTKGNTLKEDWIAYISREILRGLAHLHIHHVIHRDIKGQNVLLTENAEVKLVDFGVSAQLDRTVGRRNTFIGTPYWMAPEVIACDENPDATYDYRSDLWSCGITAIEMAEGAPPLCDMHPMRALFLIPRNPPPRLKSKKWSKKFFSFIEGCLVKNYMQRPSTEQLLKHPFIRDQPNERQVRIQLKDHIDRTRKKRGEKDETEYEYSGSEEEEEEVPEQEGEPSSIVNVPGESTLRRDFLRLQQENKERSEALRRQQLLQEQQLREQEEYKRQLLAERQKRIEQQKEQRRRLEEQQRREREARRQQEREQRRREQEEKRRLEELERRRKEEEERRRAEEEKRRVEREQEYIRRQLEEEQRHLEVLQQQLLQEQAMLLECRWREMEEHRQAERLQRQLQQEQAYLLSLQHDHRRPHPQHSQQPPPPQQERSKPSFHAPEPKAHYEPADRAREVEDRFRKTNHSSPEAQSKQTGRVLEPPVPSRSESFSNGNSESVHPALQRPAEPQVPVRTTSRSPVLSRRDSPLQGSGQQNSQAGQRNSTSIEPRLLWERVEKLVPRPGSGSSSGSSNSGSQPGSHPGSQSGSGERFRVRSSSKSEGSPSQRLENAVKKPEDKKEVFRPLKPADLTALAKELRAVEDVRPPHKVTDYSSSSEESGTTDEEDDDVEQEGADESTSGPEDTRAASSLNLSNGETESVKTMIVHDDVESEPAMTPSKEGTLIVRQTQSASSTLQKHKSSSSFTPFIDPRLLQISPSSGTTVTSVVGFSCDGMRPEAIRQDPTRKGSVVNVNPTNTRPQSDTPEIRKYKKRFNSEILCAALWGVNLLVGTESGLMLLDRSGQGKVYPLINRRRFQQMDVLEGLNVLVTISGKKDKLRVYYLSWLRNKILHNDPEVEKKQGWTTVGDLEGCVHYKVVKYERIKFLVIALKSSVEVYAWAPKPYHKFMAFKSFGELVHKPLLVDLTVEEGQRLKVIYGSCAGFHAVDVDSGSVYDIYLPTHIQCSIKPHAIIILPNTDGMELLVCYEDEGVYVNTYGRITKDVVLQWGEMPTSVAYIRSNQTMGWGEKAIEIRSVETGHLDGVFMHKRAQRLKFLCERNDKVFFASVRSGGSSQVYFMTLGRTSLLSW

[6] = target: PAK4 (Homo sapiens, UniProt O96013); experiment: Inhibition of recombinant human GST-tagged PAK4 catalytic domain (295 to 591 residues) expressed in baculovirus expression system at 25 uM using FRET-labeled Ser/Thr 20 peptide as substrate measured after 1 hr by Z'-lyte assay relative to control; settings: probe FRET-labeled Ser/Thr 20 peptide
Sequence of PAK4 (O96013 whole entry, the tested form may be a part): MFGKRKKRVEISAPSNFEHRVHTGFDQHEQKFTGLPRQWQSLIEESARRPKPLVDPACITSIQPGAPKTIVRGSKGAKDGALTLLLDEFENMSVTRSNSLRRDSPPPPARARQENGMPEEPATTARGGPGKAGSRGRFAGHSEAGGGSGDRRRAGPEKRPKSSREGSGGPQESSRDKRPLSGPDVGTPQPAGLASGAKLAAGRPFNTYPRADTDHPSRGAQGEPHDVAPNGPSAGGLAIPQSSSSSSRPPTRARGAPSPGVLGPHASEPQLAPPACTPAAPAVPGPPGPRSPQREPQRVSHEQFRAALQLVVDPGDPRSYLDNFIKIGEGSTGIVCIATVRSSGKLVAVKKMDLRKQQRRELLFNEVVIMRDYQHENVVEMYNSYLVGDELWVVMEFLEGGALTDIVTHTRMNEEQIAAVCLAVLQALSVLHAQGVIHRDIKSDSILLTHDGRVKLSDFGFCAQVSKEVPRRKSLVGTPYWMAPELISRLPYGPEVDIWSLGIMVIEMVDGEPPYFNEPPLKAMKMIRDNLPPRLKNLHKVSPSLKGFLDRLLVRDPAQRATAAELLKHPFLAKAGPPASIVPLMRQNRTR

[7] = target: CSNK1D (Homo sapiens, UniProt P48730); experiment: Inhibition of recombinant human full-length GST-tagged CSNK1D expressed in baculovirus expression system at 25 uM using FRET-labeled Ser/Thr 11 peptide as substrate measured after 1 hr by Z'-lyte assay relative to control; settings: probe FRET-labeled Ser/Thr 11 peptide
Sequence of CSNK1D (P48730 whole entry): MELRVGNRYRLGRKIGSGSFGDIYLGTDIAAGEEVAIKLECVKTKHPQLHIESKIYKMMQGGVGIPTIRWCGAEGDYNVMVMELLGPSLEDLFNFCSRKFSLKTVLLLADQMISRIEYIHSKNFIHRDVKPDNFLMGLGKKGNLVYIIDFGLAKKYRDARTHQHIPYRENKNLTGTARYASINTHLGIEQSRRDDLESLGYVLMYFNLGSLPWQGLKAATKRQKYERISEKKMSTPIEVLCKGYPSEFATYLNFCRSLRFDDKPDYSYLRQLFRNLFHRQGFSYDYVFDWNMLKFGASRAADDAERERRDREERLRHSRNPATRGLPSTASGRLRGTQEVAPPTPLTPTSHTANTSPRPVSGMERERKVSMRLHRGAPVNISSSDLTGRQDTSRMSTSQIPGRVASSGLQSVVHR

[8] = target: CHEK2 (Homo sapiens, UniProt O96017); experiment: Inhibition of recombinant human full-length His-tagged CHEK2 expressed in baculovirus expression system at 25 uM using FRET-labeled Ser/Thr 07 peptide as substrate measured after 1 hr by Z'-lyte assay relative to control; settings: probe FRET-labeled Ser/Thr 07 peptide
Sequence of CHEK2 (O96017 whole entry): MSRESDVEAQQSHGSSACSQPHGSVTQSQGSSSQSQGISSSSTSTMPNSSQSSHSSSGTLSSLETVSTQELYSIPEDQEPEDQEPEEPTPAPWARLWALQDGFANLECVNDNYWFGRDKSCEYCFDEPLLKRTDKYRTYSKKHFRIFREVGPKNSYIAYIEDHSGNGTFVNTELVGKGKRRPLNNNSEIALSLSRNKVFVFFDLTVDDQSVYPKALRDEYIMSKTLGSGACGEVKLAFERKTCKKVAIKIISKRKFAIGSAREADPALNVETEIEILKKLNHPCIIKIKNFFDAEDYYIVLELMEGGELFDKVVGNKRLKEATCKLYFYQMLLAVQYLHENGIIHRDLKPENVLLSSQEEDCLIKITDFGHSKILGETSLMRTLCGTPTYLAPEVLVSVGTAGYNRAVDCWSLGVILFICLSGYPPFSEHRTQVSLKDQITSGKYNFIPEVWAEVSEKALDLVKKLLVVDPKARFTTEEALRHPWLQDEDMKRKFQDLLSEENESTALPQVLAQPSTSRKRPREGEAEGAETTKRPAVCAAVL

[9] = target: MAPKAPK2 (Homo sapiens, UniProt P49137); experiment: Inhibition of recombinant human full-length His-tagged MAPKAPK2 expressed in Escherichia coli at 25 uM using FRET-labeled Ser/Thr 04 peptide as substrate measured after 1 hr by Z'-lyte assay relative to control; settings: probe FRET-labeled Ser/Thr 04 peptide
Sequence of MAPKAPK2 (P49137 whole entry, the tested form may be a part): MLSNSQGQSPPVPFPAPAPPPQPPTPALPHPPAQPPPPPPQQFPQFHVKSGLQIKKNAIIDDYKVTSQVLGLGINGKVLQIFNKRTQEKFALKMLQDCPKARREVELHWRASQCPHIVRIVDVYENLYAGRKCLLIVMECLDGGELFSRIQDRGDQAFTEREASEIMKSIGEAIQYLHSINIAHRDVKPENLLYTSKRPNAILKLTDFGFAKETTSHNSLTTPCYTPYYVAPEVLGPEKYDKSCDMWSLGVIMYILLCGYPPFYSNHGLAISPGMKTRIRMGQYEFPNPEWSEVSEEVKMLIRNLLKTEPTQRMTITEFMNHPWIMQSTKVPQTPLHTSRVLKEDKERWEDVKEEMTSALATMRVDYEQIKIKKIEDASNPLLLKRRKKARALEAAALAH

[10] = target: INSR (Homo sapiens, UniProt P06213); experiment: Inhibition of recombinant human GST-tagged INSR cytoplasmic domain (1011 to 1382 residues) expressed in baculovirus expression system at 25 uM using FRET-labeled Tyr 01 peptide as substrate measured after 1 hr by Z'-lyte assay relative to control; settings: probe FRET-labeled Tyr 01 peptide
[11] = target: GSK3B (Homo sapiens, UniProt P49841); experiment: Inhibition of recombinant human full-length His-tagged GSK3B expressed in baculovirus expression system at 25 uM using FRET-labeled Ser/Thr 09 peptide as substrate measured after 1 hr by Z'-lyte assay relative to control; settings: probe FRET-labeled Ser/Thr 09 peptide
[12] = target: AKT1 (Homo sapiens, UniProt P31749); experiment: Inhibition of recombinant human full-length His-tagged AKT1 expressed in baculovirus expression system at 25 uM using FRET-labeled Ser/Thr 05 peptide as substrate measured after 1 hr by Z'-lyte assay relative to control; settings: probe FRET-labeled Ser/Thr 05 peptide
[13] = target: PDK1 (Homo sapiens, UniProt Q15118); experiment: Inhibition of recombinant human full-length His-tagged PDK1 expressed in baculovirus expression system at 25 uM using FRET-labeled Ser/Thr 07 peptide as substrate measured after 1 hr by Z'-lyte assay relative to control; settings: probe FRET-labeled Ser/Thr 07 peptide
Sequence of PDK1 (Q15118 whole entry): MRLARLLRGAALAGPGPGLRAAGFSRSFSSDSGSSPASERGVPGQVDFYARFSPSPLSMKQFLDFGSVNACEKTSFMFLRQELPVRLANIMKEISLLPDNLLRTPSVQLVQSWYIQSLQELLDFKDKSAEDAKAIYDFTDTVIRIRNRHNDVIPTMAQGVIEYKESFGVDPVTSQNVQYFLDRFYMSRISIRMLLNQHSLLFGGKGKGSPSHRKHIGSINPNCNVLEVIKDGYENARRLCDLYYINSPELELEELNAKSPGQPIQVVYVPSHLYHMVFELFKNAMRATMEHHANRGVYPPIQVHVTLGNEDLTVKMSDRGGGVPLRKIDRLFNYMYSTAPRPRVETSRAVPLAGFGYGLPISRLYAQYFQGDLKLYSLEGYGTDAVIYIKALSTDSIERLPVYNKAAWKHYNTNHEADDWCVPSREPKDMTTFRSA

[14] = target: T1, PRKCZ (Homo sapiens, UniProt Q05513); experiment: Inhibition of recombinant human full-length untagged PRKCZ expressed in baculovirus expression system at 25 uM using FRET-labeled Ser/Thr 07 peptide as substrate measured after 1 hr by Z'-lyte assay relative to control; settings: probe FRET-labeled Ser/Thr 07 peptide
T1 sequence (Q05513 whole entry): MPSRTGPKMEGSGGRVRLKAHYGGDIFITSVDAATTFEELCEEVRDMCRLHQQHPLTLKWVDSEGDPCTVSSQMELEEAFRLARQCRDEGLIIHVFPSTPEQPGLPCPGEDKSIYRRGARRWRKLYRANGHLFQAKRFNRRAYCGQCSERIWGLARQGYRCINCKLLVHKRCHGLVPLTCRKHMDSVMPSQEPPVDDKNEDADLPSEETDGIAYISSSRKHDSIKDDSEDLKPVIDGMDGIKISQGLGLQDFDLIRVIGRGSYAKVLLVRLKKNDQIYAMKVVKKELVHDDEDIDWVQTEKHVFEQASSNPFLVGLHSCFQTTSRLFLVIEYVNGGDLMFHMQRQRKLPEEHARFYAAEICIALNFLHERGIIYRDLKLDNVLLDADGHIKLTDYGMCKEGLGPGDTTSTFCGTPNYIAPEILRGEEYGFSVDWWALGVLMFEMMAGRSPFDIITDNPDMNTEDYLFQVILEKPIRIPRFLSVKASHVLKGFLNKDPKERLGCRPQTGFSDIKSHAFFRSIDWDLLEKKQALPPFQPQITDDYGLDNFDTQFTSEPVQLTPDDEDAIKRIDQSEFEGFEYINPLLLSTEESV

[15] = target: T2, CHEK1 (Homo sapiens, UniProt O14757); experiment: Inhibition of recombinant human full-length His-tagged CHEK1 expressed in baculovirus expression system at 25 uM using FRET-labeled Ser/Thr 19 peptide as substrate measured after 1 hr by Z'-lyte assay relative to control; settings: probe FRET-labeled Ser/Thr 19 peptide
T2 sequence (O14757 whole entry): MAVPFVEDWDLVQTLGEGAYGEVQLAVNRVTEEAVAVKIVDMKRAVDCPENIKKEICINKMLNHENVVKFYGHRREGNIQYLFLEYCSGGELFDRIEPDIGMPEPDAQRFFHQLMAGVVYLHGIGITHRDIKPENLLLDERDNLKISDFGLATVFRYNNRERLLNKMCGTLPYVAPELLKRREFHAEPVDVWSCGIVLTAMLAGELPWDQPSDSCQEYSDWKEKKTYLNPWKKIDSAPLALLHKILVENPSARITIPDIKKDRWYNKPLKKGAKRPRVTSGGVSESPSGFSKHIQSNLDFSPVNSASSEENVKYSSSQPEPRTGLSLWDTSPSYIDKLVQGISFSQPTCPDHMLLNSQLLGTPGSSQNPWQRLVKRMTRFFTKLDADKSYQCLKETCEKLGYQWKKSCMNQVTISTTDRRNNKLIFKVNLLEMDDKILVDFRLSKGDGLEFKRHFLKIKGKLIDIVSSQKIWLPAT

SMILES	MIC [1]	inhibition at 1 h, 25 µM [2]	inhibition at 1 h, 25 µM [3]	inhibition at 1 h, 25 µM [4]	inhibition at 1 h, 25 µM [5]	inhibition at 1 h, 25 µM [6]	inhibition at 1 h, 25 µM [7]	inhibition at 1 h, 25 µM [8]	inhibition at 1 h, 25 µM [9]	inhibition at 1 h, 25 µM [10]	inhibition at 1 h, 25 µM [11]	inhibition at 1 h, 25 µM [12]	inhibition at 1 h, 25 µM [13]	inhibition at 1 h, 25 µM [14]	inhibition at 1 h, 25 µM [15]
Nc1ncc2cc(-c3c(Cl)cccc3-c3cccnc3)c(N3C[C@@H]4[C@@H](N)[C@@H]4C3)nc2n1	0.008 µg/mL	38%	57%	65%	21%	25%	3%	20%	26%	3%	4%	6%	0%	5%	28%
Nc1ncc2cc(-c3c(Br)cccc3Br)c(N)nc2n1	0.12 µg/mL	97%	78%	58%	52%	20%	16%	13%	10%	6%	6%	4%	3%	0%	-1%
CC(C)COc1cccc(Cl)c1-c1cc2cnc(N)nc2nc1N1C[C@@H]2[C@@H](N)[C@@H]2C1	0.015 µg/mL	30%	60%	6%	24%	23%	3%	67%	21%	3%	7%	7%	0%	-8%	42%
